Data reported in patent publication US10512269B2, “Herbicidal compounds” (Syngenta Participations AG, priority 2015, dated 2019).

Key:
Experiment in all cases: B1 Post-emergence efficacy, glasshouse pot test
Format in all cases: in vivo
Conditions in all cases: post-emergence spray, evaluated after 13 days
[1] = test system: Amaranthus retoflexus (AMARE)
Procedure: (§1) Seeds of a variety of test species are sown in standard soil in pots: —Solanum nigrum (SOLNI), Amaranthus retoflexus (AMARE), Setaria faberi (SETFA), Echinochloa crus-galli (ECHCG), Ipomoea hederacea (IPOHE), Lolium perenne (LOLPE). After 8 days cultivation (post-emergence) under controlled conditions in a glasshouse (at 24/16° C., day/night; 14 hours light; 65% humidity), the plants are sprayed with an aqueous spray solution derived from the formulation of the technical active ingredient in acetone/water (50:50) solution containing 0.5% Tween 20 (polyoxyethelyene sorbitan monolaurate, CAS RN 9005-64-5). Compounds are applied at 1000 g/ha and 250 g/ha. The test plants are then grown in a glasshouse under controlled conditions in a glasshouse (at 24/16° C., day/night; 14 hours light; 65% humidity) and watered twice daily. After 13 days, the test is evaluated for the percentage damage caused to the plant. The biological activities are assessed on a five point scale (5=80-100%; 4=60-79%; 3=40-59%; 2=20-39%; 1=0-19%). A blank value in the table is indicative that the compound was not tested on that species.

[2] = test system: Echinochloa crus-galli (ECHCG)
Procedure: as §1

[3] = test system: Ipomoea hederacea (IPOHE)
Procedure: as §1

Lolium perenne (LOLPE) = test system: Lolium perenne (LOLPE)
Procedure: as §1

Setaria faberi (SETFA) = test system: Setaria faberi (SETFA)
Procedure: as §1

Solanum nigrum (SOLNI) = test system: Solanum nigrum (SOLNI)
Procedure: as §1

SMILES | percentage damage caused to the plant, five point scale, AMARE ([1]; 250 g/ha) | percentage damage caused to the plant, five point scale, AMARE ([1]; 1000 g/ha) | percentage damage caused to the plant, five point scale, ECHCG ([2]; 250 g/ha) | percentage damage caused to the plant, five point scale, ECHCG ([2]; 1000 g/ha) | percentage damage caused to the plant, five point scale, IPOHE ([3]; 250 g/ha) | percentage damage caused to the plant, five point scale, IPOHE ([3]; 1000 g/ha) | percentage damage caused to the plant, five point scale, LOLPE (Lolium perenne (LOLPE); 250 g/ha) | percentage damage caused to the plant, five point scale, LOLPE (Lolium perenne (LOLPE); 1000 g/ha) | percentage damage caused to the plant, five point scale, SETFA (Setaria faberi (SETFA); 250 g/ha) | percentage damage caused to the plant, five point scale, SETFA (Setaria faberi (SETFA); 1000 g/ha) | percentage damage caused to the plant, five point scale, SOLNI (Solanum nigrum (SOLNI); 250 g/ha) | percentage damage caused to the plant, five point scale, SOLNI (Solanum nigrum (SOLNI); 1000 g/ha)
C#CCN1c2ncsc2C(O)=C(c2c(Cl)ccc(Cl)c2OCc2ccccc2)S1(=O)=O [Compound 5.22] | 2 (2=20-39%) | 1 (1=0-19%) | 2 (2=20-39%) | 2 (2=20-39%) | 2 (2=20-39%) | 2 (2=20-39%) | 2 (2=20-39%) | 2 (2=20-39%) | 1 (1=0-19%) | 2 (2=20-39%) | 1 (1=0-19%) | 1 (1=0-19%)
C#CCn1c(=O)c(-c2c(Cl)ccc(Cl)c2OCc2ccccc2)c(O)c2nsnc21 [Compound 9.22, 6-(2-benzyloxy-3,6-dichloro-phenyl)-7-hydroxy-4-prop-2-ynyl-[1,2,5]thiadiazolo[3,4-b]pyridin-5-one] | 4 (4=60-79%) | 5 (5=80-100%) | 2 (2=20-39%) | 3 (3=40-59%) | 5 (5=80-100%) | 5 (5=80-100%) | 4 (4=60-79%) | 5 (5=80-100%) | 2 (2=20-39%) | 5 (5=80-100%) | 4 (4=60-79%) | 5 (5=80-100%)
O=c1c(-c2c(Cl)ccc(Cl)c2OCc2cnc(Cl)s2)c(O)c2scnc2n1CC(F)F [Compound 3.19] | 5 (5=80-100%) | 5 (5=80-100%) | 4 (4=60-79%) | 5 (5=80-100%) | 5 (5=80-100%) | 5 (5=80-100%) | 5 (5=80-100%) | 5 (5=80-100%) | 5 (5=80-100%) | 5 (5=80-100%) | 5 (5=80-100%) | 5 (5=80-100%)
O=S1(=O)C(c2c(Cl)ccc(Cl)c2OCc2ccccc2)=C(O)c2scnc2N1CC(F)F [Compound 13.22] | 3 (3=40-59%) | 2 (2=20-39%) | 1 (1=0-19%) | 2 (2=20-39%) | 4 (4=60-79%) | 5 (5=80-100%) | 2 (2=20-39%) | 2 (2=20-39%) | 1 (1=0-19%) | 2 (2=20-39%) | 3 (3=40-59%) | 4 (4=60-79%)
C#CCn1c(=O)c(-c2c(F)ccc(Cl)c2OCc2ccccc2)c(O)c2csnc21 [Compound 15.22] | 4 (4=60-79%) | 5 (5=80-100%) | 2 (2=20-39%) | 3 (3=40-59%) | 4 (4=60-79%) | 3 (3=40-59%) | 3 (3=40-59%) | 4 (4=60-79%) | 1 (1=0-19%) | 3 (3=40-59%) | 4 (4=60-79%) | 5 (5=80-100%)
C#CCn1c(=O)c(-c2c(Cl)ccc(Cl)c2OCc2cnc(Cl)s2)c(O)c2scnc21 [Compound 1.19, 6-[3,6-dichloro-2-[(2-chlorothiazol-5-yl)methoxy]phenyl]-7-hydroxy-4-prop-2-ynyl-thiazolo[4,5-b]pyridin-5-one] | 5 (5=80-100%) | 5 (5=80-100%) | 5 (5=80-100%) | 5 (5=80-100%) | 5 (5=80-100%) | 5 (5=80-100%) | 5 (5=80-100%) | 5 (5=80-100%) | 5 (5=80-100%) | 5 (5=80-100%) | 5 (5=80-100%) | 5 (5=80-100%)
